In one experiment the test system is glycogen synthase. The experiment is described as follows: Glycogen synthase activation in rat myotubes. In kind it is cell-based. Particulars: for EC50: Myotube; for Max FI (% to LiCl): maximum fold induction normalised to 40 mM LiCl. On the procedure:
Rat myotubes were differentiated from L6.G8.C5 myoblasts, which were grown in DMEM, 10% FCS and antibiotics until confluent. The medium was then removed, cells washed with PBS and differentiation medium containing minimal essential media eagles (alpha modified) supplemented with 2% FCS and antibiotics. The cells were cultured for 3-4 days until >90% of cells had formed multinucleated myotubes. The differentiated cells were then used for determination of glycogen synthase activation after treatment with GSK3 inhibitor example compounds.
HEK293 cells, mouse adipocytes or rat myotubes were treated in 10-cm Petri dishes with different concentrations of GSK3 inhibitor example compounds for 90 minutes. At the end of the treatment period the cells were washed and scraped in ice cold PBS buffer supplemented with 20 mM NaF. The cells were pelleted by centrifugation and lysed in 300 μL buffer (50 mM.HEPES pH 7.5, 10 mM EDTA, 100 mM NaF, 5 mM DTT, protease inhibitor cocktail (Sigma)). After incubation for 30 min on ice the samples were cleared by centrifugation. The activity of glycogen synthase was determined in the soluble fraction at two different concentrations of […]—low (0.1 mM) and high (10 mM). The reaction was carried out for 30 min (buffer: 50 mM Tris pH 7.8, 20 mM EDTA, 25 mM NaF, 5 mM DTT). The reaction mixture (total volume of 90 μL) contained 1% glycogen, 0.3 mM UDP-glucose and 0.06 μCi ^14C-UDP-glucose. Reaction was stopped by transfer of 70 μL to a GFC 96-well filter plate, containing 140 μL 100% ethanol and the glycogen was allowed to precipitate for 1 h at 4° C. The wells were washed 2 times with 200 μL 66% ethanol and than allowed to dry. Subsequently, 100 μL of scintillation liquid was added, and plates were sealed and counted in a Packard Topcounter. Glycogen synthase activation was calculated as the ratio between the incorporation of labelled ^14C-UDP-glucose in glycogen at low and high concentration of […] (fractional velocity).
The ability of GSK3 inhibitors to activate glycogen synthase was determined in HEK293 cells, mouse adipocytes and rat myotubed. The compounds tested activated glycogen synthase in all three cellular systems with EC50 values in the sub-micromolar to low micromolar concentration range. Most of them exceeded the stimulation induced by 40 mM LiCl (the highest compound concentration used in the assay was 20 μM).

The target in a further experiment is T1, aurora A (Homo sapiens, UniProt O14965).
T1 sequence (O14965 1-403): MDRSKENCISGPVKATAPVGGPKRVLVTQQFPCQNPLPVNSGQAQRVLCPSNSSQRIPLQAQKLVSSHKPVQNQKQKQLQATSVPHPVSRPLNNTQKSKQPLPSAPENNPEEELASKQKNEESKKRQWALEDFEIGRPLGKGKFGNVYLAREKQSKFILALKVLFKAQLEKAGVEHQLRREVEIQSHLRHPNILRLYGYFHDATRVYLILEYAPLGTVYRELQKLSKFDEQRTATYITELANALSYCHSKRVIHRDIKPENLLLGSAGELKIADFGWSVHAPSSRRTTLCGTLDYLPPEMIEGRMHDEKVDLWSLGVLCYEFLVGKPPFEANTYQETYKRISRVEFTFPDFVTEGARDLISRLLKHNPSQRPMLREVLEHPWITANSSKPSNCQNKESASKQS
The experiment is described as follows: Kinase assay aurora A. In kind it is biochemical. Particulars: Ki calculated (Cheng-Prusoff) from experimentally determined IC50 and Km,ATP; read-out: Kinase Inhibition Ki Aurora A. A digest of the protocol: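 Radiometric assays measured transfer of radioactive phosphate from ATP onto polypeptide substrates, using 2-4 μg recombinant active enzyme in buffer typically containing 25 mM β-glycerophosphate, 20 mM MOPS, 5 mM EGTA, 1 mM DTT and 1 mM Na3VO3 at pH 7.4. Reactions were stopped on ice, filtered on P81 or GF/C plates and washed with orthophosphoric acid. Incorporated radioactivity was scintillation-counted.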

With `Cc1c(-c2ccnc(Nc3cccc(S(=O)(=O)NCCO)c3)n2)sc(=O)n1C` [Compound 75, 3-[4-(3,4-Dimethyl-2-oxo-2,3-dihydro-thiazol-5-yl)-pyrimidin-2-ylamino]-N-(2-hydroxy-ethyl)-benzenesulfonamide], in the experiment with glycogen synthase, the EC50 – broadly, the midpoint of the concentration-response curve – was found to be 8.49 ± 2.48 µM and the “Max FI (% to LiCl)” value is listed as 157 % to LiCl. Moreover, on aurora A, the Ki – broadly, the dissociation constant of the complex between target and ligand, obtained from inhibition or displacement – is 0.25 µM.
`CC(=O)Nc1cc(Nc2nccc(-c3sc(=O)n(C)c3C)n2)cc(C(F)(F)F)c1` [Compound 64, N-{3-[4-(3,4-Dimethyl-2-oxo-2,3-dihydro-thiazol-5-yl)-pyrimidin-2-ylamino]-5-trifluoromethyl-phenyl}-acetamide]: in the experiment on glycogen synthase, it took 1.24 ± 0.61 µM to reach a half-maximal effect (EC50) and the “Max FI (% to LiCl)” value is on record as 152 % to LiCl. Besides, the Ki at aurora A is 0.17 µM.
Take `COCCNS(=O)(=O)c1cccc(Nc2nccc(-c3sc(=O)n(C)c3C)n2)c1` [Compound 67, 3-[4-(3,4-Dimethyl-2-oxo-2,3-dihydro-thiazol-5-yl)-pyrimidin-2-ylamino]-N-(2-methoxy-ethyl)-benzenesulfonamide]: in the experiment with glycogen synthase, the EC50 came out at 10.5 ± 0.99 µM and the “Max FI (% to LiCl)” value is 112 % to LiCl. On aurora A, the Ki is 0.39 µM.
Take `CNc1cc(Nc2nccc(-c3sc(=O)n(C)c3C)n2)cc(C(F)(F)F)c1` [Compound 76, 3,4-Dimethyl-5-[2-(3-methylamino-5-trifluoromethyl-phenylamino)-pyrimidin-4-yl]-3H-thiazol-2-one]: the Ki on aurora A is 0.15 µM.
`CCNS(=O)(=O)c1cccc(Nc2nccc(-c3sc(=O)n(C)c3C)n2)c1` [Compound 62, 3-[4-(3,4-Dimethyl-2-oxo-2,3-dihydro-thiazol-5-yl)-pyrimidin-2-ylamino]-N-ethyl-benzenesulfonamide]: in the experiment on glycogen synthase, it took 1.61 ± 0.199 µM to reach a half-maximal effect (EC50) and the “Max FI (% to LiCl)” value is listed as 130 % to LiCl. Moreover, the Ki on aurora A is 0.41 µM.

Values taken from patent US7902361B2, “Pyrimidin-4-yl-3, 4-thione compounds and their use in therapy” (Cyclacel Limited, priority 2003, dated 2011).
